In patent publication US20240158370A1, “CK1 alpha AND DUAL CK1 alpha / GSPT1 DEGRADING COMPOUNDS” (Innovo Therapeutics, Inc., priority 2022, published 2024):

Legend:
GSPT1 = GSPT1 (Homo sapiens, UniProt P15170+Q96SW2); experiment: HiBiT degradation assay, GSPT1, Procedure A; format: cell-based; set-up: HiBit-GSPT1 KI HEK293(LgBit) Cells; host or cells: HEK293(LgBit) knock-in cells; details: six hours incubation
In short: (§1)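 Cells in DMEM + 10% FBS were treated with compound in a ten-point dose response from 10 μM to 0.005 μM (0.1% DMSO) for six hours at 37° C. Lysis with Nano-Glo HiBiT detection reagent followed, with luminescence read. DC50 and Ymin came from a 4-parameter fit.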

CK1α = molecular target: T1, CK1α (Homo sapiens, UniProt P48729+Q96SW2); experiment: HiBiT degradation assay, CK1α, Procedure A; format: cell-based; details: six hours incubation
T1 construct: CSNK1A1-HiBit KI HEK293(LgBit) Cells; host or cells: HEK293(LgBit) knock-in cells
T1 sequence (P48729 whole entry): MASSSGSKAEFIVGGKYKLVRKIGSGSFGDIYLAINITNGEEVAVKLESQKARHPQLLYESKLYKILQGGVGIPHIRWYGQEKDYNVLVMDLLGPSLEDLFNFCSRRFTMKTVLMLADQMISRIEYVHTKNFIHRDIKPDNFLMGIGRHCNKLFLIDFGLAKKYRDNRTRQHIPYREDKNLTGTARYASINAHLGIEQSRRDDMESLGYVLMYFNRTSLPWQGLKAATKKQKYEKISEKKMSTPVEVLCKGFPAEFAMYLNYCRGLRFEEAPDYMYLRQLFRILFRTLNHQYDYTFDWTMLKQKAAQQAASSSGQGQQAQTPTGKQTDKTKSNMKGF
T1 sequence (Q96SW2 whole entry): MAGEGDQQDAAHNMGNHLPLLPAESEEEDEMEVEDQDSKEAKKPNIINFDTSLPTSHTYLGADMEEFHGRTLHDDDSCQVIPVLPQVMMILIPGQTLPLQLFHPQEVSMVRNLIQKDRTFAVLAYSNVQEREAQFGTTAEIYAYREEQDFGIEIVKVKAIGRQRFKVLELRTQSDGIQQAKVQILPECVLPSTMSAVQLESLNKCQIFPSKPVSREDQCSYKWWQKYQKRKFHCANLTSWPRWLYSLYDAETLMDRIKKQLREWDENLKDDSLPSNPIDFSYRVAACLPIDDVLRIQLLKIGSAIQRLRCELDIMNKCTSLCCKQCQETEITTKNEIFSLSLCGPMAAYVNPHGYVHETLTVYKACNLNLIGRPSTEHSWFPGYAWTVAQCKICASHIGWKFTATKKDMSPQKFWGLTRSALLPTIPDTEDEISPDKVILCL
T1 sequence (Q16531 whole entry partner): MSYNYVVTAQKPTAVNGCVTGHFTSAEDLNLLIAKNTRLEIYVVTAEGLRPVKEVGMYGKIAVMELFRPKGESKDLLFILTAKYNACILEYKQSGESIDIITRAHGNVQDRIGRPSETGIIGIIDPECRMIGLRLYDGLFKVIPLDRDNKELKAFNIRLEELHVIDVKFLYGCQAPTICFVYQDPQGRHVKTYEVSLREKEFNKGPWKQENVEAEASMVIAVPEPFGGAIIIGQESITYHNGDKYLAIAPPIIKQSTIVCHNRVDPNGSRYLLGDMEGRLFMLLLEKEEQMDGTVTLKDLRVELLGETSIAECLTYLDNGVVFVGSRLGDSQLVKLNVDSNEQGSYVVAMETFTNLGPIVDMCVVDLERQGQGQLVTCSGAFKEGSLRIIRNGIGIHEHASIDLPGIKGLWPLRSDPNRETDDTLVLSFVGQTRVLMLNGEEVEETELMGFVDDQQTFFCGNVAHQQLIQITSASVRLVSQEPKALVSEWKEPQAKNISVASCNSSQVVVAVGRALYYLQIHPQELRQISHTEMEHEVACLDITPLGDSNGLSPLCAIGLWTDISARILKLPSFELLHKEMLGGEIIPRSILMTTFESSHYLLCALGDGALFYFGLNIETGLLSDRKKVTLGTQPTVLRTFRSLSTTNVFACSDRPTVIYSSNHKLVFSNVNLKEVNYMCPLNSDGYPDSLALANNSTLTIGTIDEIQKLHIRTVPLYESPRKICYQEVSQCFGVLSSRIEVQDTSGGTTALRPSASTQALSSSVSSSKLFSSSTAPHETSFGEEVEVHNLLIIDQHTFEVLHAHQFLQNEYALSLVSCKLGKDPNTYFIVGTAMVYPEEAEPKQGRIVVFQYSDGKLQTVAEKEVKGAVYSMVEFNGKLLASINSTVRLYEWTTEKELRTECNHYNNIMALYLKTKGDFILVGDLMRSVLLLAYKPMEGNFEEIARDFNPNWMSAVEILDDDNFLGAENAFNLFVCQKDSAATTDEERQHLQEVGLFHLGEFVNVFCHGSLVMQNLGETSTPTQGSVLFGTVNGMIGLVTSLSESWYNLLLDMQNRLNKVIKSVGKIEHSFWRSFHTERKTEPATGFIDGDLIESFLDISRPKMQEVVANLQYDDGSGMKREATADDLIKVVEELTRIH
In short: as §1

GSPT1, sequence (P15170 whole entry): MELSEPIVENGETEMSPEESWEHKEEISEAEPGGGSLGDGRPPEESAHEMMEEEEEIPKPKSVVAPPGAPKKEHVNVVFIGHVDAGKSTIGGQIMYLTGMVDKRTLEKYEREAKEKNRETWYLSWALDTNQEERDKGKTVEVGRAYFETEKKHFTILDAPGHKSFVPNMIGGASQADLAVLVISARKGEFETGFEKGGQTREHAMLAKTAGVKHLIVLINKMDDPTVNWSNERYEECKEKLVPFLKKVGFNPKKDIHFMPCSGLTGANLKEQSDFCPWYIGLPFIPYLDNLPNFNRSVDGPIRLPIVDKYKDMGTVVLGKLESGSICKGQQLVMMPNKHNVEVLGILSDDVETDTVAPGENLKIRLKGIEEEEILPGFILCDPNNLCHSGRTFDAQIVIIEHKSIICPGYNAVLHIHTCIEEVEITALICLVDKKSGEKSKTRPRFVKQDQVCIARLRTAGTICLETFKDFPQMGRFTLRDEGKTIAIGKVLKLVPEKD
GSPT1, sequence (Q96SW2 whole entry): as the sequence (Q96SW2 whole entry) above
GSPT1, sequence (Q16531 whole entry partner): as the sequence (Q16531 whole entry partner) above

`Cn1ncc(-c2ccc3c(c2)CN(C2CCC(=O)NC2=O)C3=O)c1-c1cccc(Cl)c1` (centres unmarked) [Example 173] was tested, and the DC50 (GSPT1) was at least 25 nM, the “GSPT1 Ymin” value (GSPT1) was “F (F = >75-100% remaining)” and the “CK1α Ymin” value (CK1α) was “E (E = >25-75% remaining)”. It also gave a DC50 (CK1α) of under 25 nM.

In the case of `Cn1ncc(-c2ccc3c(c2)CN(C2CCC(=O)NC2=O)C3=O)c1-c1ccc(Cl)cc1` (centres unmarked) [Example 174], the DC50 (GSPT1) is reported as under 25 nM, the “GSPT1 Ymin” value (GSPT1) is reported as “E (E = >25-75% remaining)” and the “CK1α Ymin” value (CK1α) is reported as “D (D = >10- 25% remaining)”. For the same compound, the DC50 (CK1α) was under 25 nM.

With `Cn1cnc(-c2ccc3c(c2)CN(C2CCC(=O)NC2=O)C3=O)c1-c1ccccc1Cl` (centres unmarked) [Example 175] the DC50 (GSPT1) was at least 25 nM, the “GSPT1 Ymin” value (GSPT1) was “F (F = >75-100% remaining)” and the “CK1α Ymin” value (CK1α) was “D (D = >10- 25% remaining)”. It also gave a DC50 (CK1α) of under 25 nM.

In the case of `Cn1cnc(-c2ccc3c(c2)CN(C2CCC(=O)NC2=O)C3=O)c1-c1ccc(F)cc1F` (centres unmarked) [Example 176], the DC50 (GSPT1) is reported as under 25 nM, the “GSPT1 Ymin” value (GSPT1) is reported as “E (E = >25-75% remaining)” and the “CK1α Ymin” value (CK1α) is reported as “D (D = >10- 25% remaining)”. For the same compound, the DC50 (CK1α) was under 25 nM.

For `Cn1cnc(-c2ccc3c(c2)CN(C2CCC(=O)NC2=O)C3=O)c1-c1ccc(F)c(F)c1` (centres unmarked) [Example 177], the DC50 (GSPT1) was under 25 nM, the “GSPT1 Ymin” value (GSPT1) was “E (E = >25-75% remaining)” and the “CK1α Ymin” value (CK1α) was “D (D = >10- 25% remaining)”. The DC50 (CK1α) was under 25 nM.

For `Cn1ncc(-c2ccc3c(c2)CN(C2CCC(=O)NC2=O)C3=O)c1-c1cc(F)cc(F)c1` (centres unmarked) [Example 178], the DC50 (GSPT1) was under 25 nM, the “GSPT1 Ymin” value (GSPT1) was “F (F = >75-100% remaining)” and the “CK1α Ymin” value (CK1α) was “D (D = >10- 25% remaining)”. It also gave a DC50 (CK1α) of under 25 nM.

For `Cn1cnc(-c2ccc3c(c2)CN(C2CCC(=O)NC2=O)C3=O)c1-c1cc(F)ccc1F` (centres unmarked) [Example 179], the DC50 (GSPT1) was under 25 nM, the “GSPT1 Ymin” value (GSPT1) was “E (E = >25-75% remaining)” and the “CK1α Ymin” value (CK1α) was “D (D = >10- 25% remaining)”. It also gave a DC50 (CK1α) of under 25 nM.

With `Cc1cc(C#N)ccc1-c1c(-c2ccc3c(c2)CN(C2CCC(=O)NC2=O)C3=O)ncn1C` (centres unmarked) [Example 180] the DC50 (GSPT1) was at least 25 nM, the “GSPT1 Ymin” value (GSPT1) was “F (F = >75-100% remaining)” and the “CK1α Ymin” value (CK1α) was “E (E = >25-75% remaining)”. For the same compound, the DC50 (CK1α) was at least 25 nM.

For `Cn1cnc(-c2ccc3c(c2)CN(C2CCC(=O)NC2=O)C3=O)c1-c1ccc(Cl)s1` (centres unmarked) [Example 181], the DC50 (GSPT1) was at least 25 nM, the “GSPT1 Ymin” value (GSPT1) was “E (E = >25-75% remaining)” and the “CK1α Ymin” value (CK1α) was “C (C = 0-10% remaining)”. The DC50 (CK1α) was under 25 nM.

`CC(C)c1ccccc1-c1c(-c2ccc3c(c2)CN(C2CCC(=O)NC2=O)C3=O)ncn1C` (centres unmarked) [Example 182] was tested, and the DC50 (GSPT1) was at least 25 nM, the “GSPT1 Ymin” value (GSPT1) was “F (F = >75-100% remaining)” and the “CK1α Ymin” value (CK1α) was “E (E = >25-75% remaining)”. It also gave a DC50 (CK1α) of under 25 nM.

`CC(C)c1cccc(-c2c(-c3ccc4c(c3)CN(C3CCC(=O)NC3=O)C4=O)ncn2C)c1` (centres unmarked) [Example 183] was tested, and the DC50 (GSPT1) was at least 25 nM, the “GSPT1 Ymin” value (GSPT1) was “F (F = >75-100% remaining)” and the “CK1α Ymin” value (CK1α) was “E (E = >25-75% remaining)”. It also gave a DC50 (CK1α) of under 25 nM.

`Cn1cnc(-c2ccc3c(c2)CN(C2CCC(=O)NC2=O)C3=O)c1-c1cc(F)cc(C#N)c1` (centres unmarked) [Example 185] was tested, and the DC50 (GSPT1) was at least 25 nM, the “GSPT1 Ymin” value (GSPT1) was “F (F = >75-100% remaining)” and the “CK1α Ymin” value (CK1α) was “D (D = >10- 25% remaining)”. It also gave a DC50 (CK1α) of under 25 nM.

`Cn1cnc(-c2ccc3c(c2)CN(C2CCC(=O)NC2=O)C3=O)c1-c1cc(C#N)ccc1F` (centres unmarked) [Example 186] was tested, and the DC50 (GSPT1) was at least 25 nM, the “GSPT1 Ymin” value (GSPT1) was “F (F = >75-100% remaining)” and the “CK1α Ymin” value (CK1α) was “E (E = >25-75% remaining)”. The DC50 (CK1α) was at least 25 nM.

In the case of `Cn1cnc(-c2ccc3c(c2)CN(C2CCC(=O)NC2=O)C3=O)c1-c1ccc(C#N)cc1F` (centres unmarked) [Example 187], the DC50 (GSPT1) is reported as at least 25 nM, the “GSPT1 Ymin” value (GSPT1) is reported as “F (F = >75-100% remaining)” and the “CK1α Ymin” value (CK1α) is reported as “D (D = >10- 25% remaining)”. For the same compound, the DC50 (CK1α) was under 25 nM.

`COc1ccc(-c2c(-c3ccc4c(c3)CN(C3CCC(=O)NC3=O)C4=O)ncn2C)c(C)c1` (centres unmarked) [Example 188] was tested, and the DC50 (GSPT1) was under 25 nM, the “GSPT1 Ymin” value (GSPT1) was “E (E = >25-75% remaining)” and the “CK1α Ymin” value (CK1α) was “C (C = 0-10% remaining)”. For the same compound, the DC50 (CK1α) was under 25 nM.

`COc1ccc(-c2c(-c3ccc4c(c3)CN(C3CCC(=O)NC3=O)C4=O)ncn2C)c(F)c1` (centres unmarked) [Example 189] was tested, and the DC50 (GSPT1) was under 25 nM, the “GSPT1 Ymin” value (GSPT1) was “E (E = >25-75% remaining)” and the “CK1α Ymin” value (CK1α) was “C (C = 0-10% remaining)”. For the same compound, the DC50 (CK1α) was under 25 nM.

`COc1cccc(-c2c(-c3ccc4c(c3)CN(C3CCC(=O)NC3=O)C4=O)ncn2C)c1F` (centres unmarked) [Example 190] was tested, and the DC50 (GSPT1) was under 25 nM, the “GSPT1 Ymin” value (GSPT1) was “E (E = >25-75% remaining)” and the “CK1α Ymin” value (CK1α) was “E (E = >25-75% remaining)”. It also gave a DC50 (CK1α) of under 25 nM.

For `COc1ccc(F)cc1-c1c(-c2ccc3c(c2)CN(C2CCC(=O)NC2=O)C3=O)ncn1C` (centres unmarked) [Example 191], the DC50 (GSPT1) was under 25 nM, the “GSPT1 Ymin” value (GSPT1) was “E (E = >25-75% remaining)” and the “CK1α Ymin” value (CK1α) was “E (E = >25-75% remaining)”. It also gave a DC50 (CK1α) of under 25 nM.

With `COc1cc(F)ccc1-c1c(-c2ccc3c(c2)CN(C2CCC(=O)NC2=O)C3=O)ncn1C` (centres unmarked) [Example 192] the DC50 (GSPT1) was under 25 nM, the “GSPT1 Ymin” value (GSPT1) was “E (E = >25-75% remaining)” and the “CK1α Ymin” value (CK1α) was “E (E = >25-75% remaining)”. For the same compound, the DC50 (CK1α) was under 25 nM.

With `COc1ccc(F)c(-c2c(-c3ccc4c(c3)CN(C3CCC(=O)NC3=O)C4=O)ncn2C)c1` (centres unmarked) [Example 193] the DC50 (GSPT1) was under 25 nM, the “GSPT1 Ymin” value (GSPT1) was “F (F = >75-100% remaining)” and the “CK1α Ymin” value (CK1α) was “D (D = >10- 25% remaining)”. It also gave a DC50 (CK1α) of under 25 nM.

For `COc1ccc(-c2c(-c3ccc4c(c3)CN(C3CCC(=O)NC3=O)C4=O)ncn2C)cc1F` (centres unmarked) [Example 194], the DC50 (GSPT1) was under 25 nM, the “GSPT1 Ymin” value (GSPT1) was “E (E = >25-75% remaining)” and the “CK1α Ymin” value (CK1α) was “C (C = 0-10% remaining)”. For the same compound, the DC50 (CK1α) was under 25 nM.

For `COc1c(F)cccc1-c1c(-c2ccc3c(c2)CN(C2CCC(=O)NC2=O)C3=O)ncn1C` (centres unmarked) [Example 195], the DC50 (GSPT1) was under 25 nM, the “GSPT1 Ymin” value (GSPT1) was “E (E = >25-75% remaining)” and the “CK1α Ymin” value (CK1α) was “D (D = >10- 25% remaining)”. It also gave a DC50 (CK1α) of under 25 nM.

`Cc1ccc(Cl)cc1-c1c(-c2ccc3c(c2)CN(C2CCC(=O)NC2=O)C3=O)ncn1C` (centres unmarked) [Example 196] was tested, and the DC50 (GSPT1) was under 25 nM, the “GSPT1 Ymin” value (GSPT1) was “F (F = >75-100% remaining)” and the “CK1α Ymin” value (CK1α) was “E (E = >25-75% remaining)”. The DC50 (CK1α) was under 25 nM.

For `Cc1ccc(-c2c(-c3ccc4c(c3)CN(C3CCC(=O)NC3=O)C4=O)ncn2C)cc1Cl` (centres unmarked) [Example 197], the DC50 (GSPT1) was under 25 nM, the “GSPT1 Ymin” value (GSPT1) was “E (E = >25-75% remaining)” and the “CK1α Ymin” value (CK1α) was “E (E = >25-75% remaining)”. For the same compound, the DC50 (CK1α) was under 25 nM.

With `Cc1ccc(-c2c(-c3ccc4c(c3)CN(C3CCC(=O)NC3=O)C4=O)ncn2C)c(Cl)c1` (centres unmarked) [Example 198] the DC50 (GSPT1) was under 25 nM, the “GSPT1 Ymin” value (GSPT1) was “E (E = >25-75% remaining)” and the “CK1α Ymin” value (CK1α) was “C (C = 0-10% remaining)”. It also gave a DC50 (CK1α) of under 25 nM.

In the case of `Cc1ccc(Cl)c(-c2c(-c3ccc4c(c3)CN(C3CCC(=O)NC3=O)C4=O)ncn2C)c1` (centres unmarked) [Example 199], the DC50 (GSPT1) is reported as under 25 nM, the “GSPT1 Ymin” value (GSPT1) is reported as “F (F = >75-100% remaining)” and the “CK1α Ymin” value (CK1α) is reported as “D (D = >10- 25% remaining)”. For the same compound, the DC50 (CK1α) was under 25 nM.

In the case of `Cc1cc(-c2c(-c3ccc4c(c3)CN(C3CCC(=O)NC3=O)C4=O)ncn2C)ccc1Cl` (centres unmarked) [Example 200], the DC50 (GSPT1) is reported as under 25 nM, the “GSPT1 Ymin” value (GSPT1) is reported as “E (E = >25-75% remaining)” and the “CK1α Ymin” value (CK1α) is reported as “D (D = >10- 25% remaining)”. For the same compound, the DC50 (CK1α) was under 25 nM.

With `Cc1cc(Cl)cc(-c2c(-c3ccc4c(c3)CN(C3CCC(=O)NC3=O)C4=O)ncn2C)c1` (centres unmarked) [Example 201] the DC50 (GSPT1) was at least 25 nM, the “GSPT1 Ymin” value (GSPT1) was “F (F = >75-100% remaining)” and the “CK1α Ymin” value (CK1α) was “E (E = >25-75% remaining)”. The DC50 (CK1α) was under 25 nM.

For `Cn1cnc(-c2ccc3c(c2)CN(C2CCC(=O)NC2=O)C3=O)c1-c1cccc(C(F)F)c1` (centres unmarked) [Example 202], the DC50 (GSPT1) was at least 25 nM, the “GSPT1 Ymin” value (GSPT1) was “F (F = >75-100% remaining)” and the “CK1α Ymin” value (CK1α) was “D (D = >10- 25% remaining)”. For the same compound, the DC50 (CK1α) was under 25 nM.
